{
  "source": "patent US4353986A",
  "about": "“Process for producing antibiotic nanaomycin E” (priority 1978, dated 1982)",
  "key": {"[1]": {"test_system": "Staphylococcus aureus FDA 209P", "assay": "antibacterial spectrum, MIC by agar dilution", "type": "cell-based", "settings": "FDA209P, nutrient agar pH 7.0, 37° C., 20 hours"}, "[2]": {"test_system": "Staphylococcus aureus FS 1277 (penicillin-resistant)", "assay": "antibacterial spectrum, MIC by agar dilution", "type": "cell-based", "settings": "nutrient agar pH 7.0, 37° C., 20 hours"}, "[3]": {"test_system": "Staphylococcus aureus KB 64 (erythromycin- and tetracycline-resistant)", "assay": "antibacterial spectrum, MIC by agar dilution", "type": "cell-based", "settings": "nutrient agar pH 7.0, 37° C., 20 hours"}, "[4]": {"test_system": "Bacillus subtilis PCI 219", "assay": "antibacterial spectrum, MIC by agar dilution", "type": "cell-based", "settings": "PCI219, nutrient agar pH 7.0, 37° C., 20 hours"}, "Bacillus cereus T": {"test_system": "Bacillus cereus T", "assay": "antibacterial spectrum, MIC by agar dilution", "type": "cell-based", "settings": "nutrient agar pH 7.0, 37° C., 20 hours"}, "Sarcina lutea PCI 1001": {"test_system": "Sarcina lutea PCI 1001", "assay": "antibacterial spectrum, MIC by agar dilution", "type": "cell-based", "settings": "Micrococcus luteus, PCI1001, nutrient agar pH 7.0, 37° C., 20 hours"}, "[5]": {"test_system": "Mycobacterium smegmatis ATCC 607", "assay": "antibacterial spectrum, MIC by agar dilution", "type": "cell-based", "settings": "Mycolicibacterium smegmatis, ATCC607, nutrient agar pH 7.0, 37° C., 20 hours"}, "[6]": {"test_system": "Proteus vulgaris IFO 3167", "assay": "antibacterial spectrum, MIC by agar dilution", "type": "cell-based", "settings": "IFO3167, nutrient agar pH 7.0, 37° C., 20 hours"}, "Nocardia asteroides": {"test_system": "Nocardia asteroides", "assay": "antibacterial spectrum, MIC by agar dilution", "type": "cell-based", "settings": "nutrient agar pH 7.0, 37° C., 20 hours"}, "Escherichia coli NIHJ": {"test_system": "Escherichia coli NIHJ", "assay": "antibacterial spectrum, MIC by agar dilution", "type": "cell-based", "settings": "nutrient agar pH 7.0, 37° C., 20 hours"}, "Salmonella typhimurium": {"test_system": "Salmonella typhimurium", "assay": "antibacterial spectrum, MIC by agar dilution", "type": "cell-based", "settings": "Salmonella enterica, nutrient agar pH 7.0, 37° C., 20 hours"}, "Shigella sonnei E 33": {"test_system": "Shigella sonnei E 33", "assay": "antibacterial spectrum, MIC by agar dilution", "type": "cell-based", "settings": "E33, nutrient agar pH 7.0, 37° C., 20 hours", "method": "(§1) The antibacterial and antifungal spectrum of nanaomycin E is shown in Table 1, in which the minimum inhibitory concentration (MIC) is determined by the agar dilution method. In the case of bacteria, the determination was made after culturing at 37° C. for 20 hours by using a nutrient agar having a pH of 7.0 and, in the cases of fungi, the determination was made after culturing at 27° C. for 70 hours by using a potato-agar having a pH of 6.4."}, "[7]": {"test_system": "Pseudomonas aeruginosa P 3", "assay": "antibacterial spectrum, MIC by agar dilution", "type": "cell-based", "settings": "P3, nutrient agar pH 7.0, 37° C., 20 hours"}, "Candida albicans": {"test_system": "Candida albicans", "assay": "antifungal spectrum, MIC by agar dilution", "type": "cell-based", "settings": "potato-agar pH 6.4, 27° C., 70 hours"}, "Saccharomyces sake": {"test_system": "Saccharomyces sake", "assay": "antifungal spectrum, MIC by agar dilution", "type": "cell-based", "settings": "potato-agar pH 6.4, 27° C., 70 hours"}, "Piricularia oryzae": {"test_system": "Piricularia oryzae", "assay": "microbe, parasite or virus in culture", "type": "cell-based", "settings": "pH 6.4; 27° C., 70 hours"}, "[8]": {"test_system": "Aspergillus niger ATCC 6275", "assay": "antifungal spectrum, MIC by agar dilution", "type": "cell-based", "settings": "ATCC6275, potato-agar pH 6.4, 27° C., 70 hours"}, "Microsporum gypseum": {"test_system": "Microsporum gypseum", "assay": "antifungal spectrum, MIC by agar dilution", "type": "cell-based", "settings": "Nannizzia gypsea, potato-agar pH 6.4, 27° C., 70 hours"}, "[9]": {"test_system": "Trichophyton interdigitale", "assay": "antifungal spectrum, MIC by agar dilution", "type": "cell-based", "settings": "potato-agar pH 6.4, 27° C., 70 hours"}, "Trichophyton rubrum": {"test_system": "Trichophyton rubrum", "assay": "antifungal spectrum, MIC by agar dilution", "type": "cell-based", "settings": "potato-agar pH 6.4, 27° C., 70 hours"}, "[10]": {"test_system": "Trichophyton mentagrophytes", "assay": "antifungal spectrum, MIC by agar dilution", "type": "cell-based", "settings": "potato-agar pH 6.4, 27° C., 70 hours"}, "Trichophyton schoenleini": {"test_system": "Trichophyton schoenleini", "assay": "antifungal spectrum, MIC by agar dilution", "type": "cell-based", "settings": "potato-agar pH 6.4, 27° C., 70 hours"}, "[11]": {"assay": "acute toxicity (LD50) in mice", "settings": "mouse, in vivo, iv; interaneveously administered to mice", "from_the_text": "(§2) Thus, nanaomycin E is of interest as an antibacterial and therapeutic agent for humans and animals."}, "[12]": {"test_system": "Gram-positive bacteria and fungi", "assay": "activity against Gram-positive bacteria and fungi compared with nanaomycin A and D", "type": "cell-based", "method": "as §1, §2"}, "solubility": {"assay": "solubility", "type": "physicochemical"}, "[13]": {"test_system": "Gram-positive bacteria, Trichophyton and Mycoplasma", "settings": "cited from earlier work"}},
  "data": [
    {"compound": "CC1OC(CC(=O)O)CC23OC12C(=O)c1c(O)cccc1C3=O", "note": "(stereo not drawn) [nanaomycin E]", "values": [
      {"measurement": "MIC", "setting": "[1]", "result": 25, "unit": "µg/mL"},
      {"measurement": "MIC", "setting": "[2]", "result": 25, "unit": "µg/mL"},
      {"measurement": "MIC", "setting": "[3]", "result": 25, "unit": "µg/mL"},
      {"measurement": "MIC", "setting": "[4]", "result": 12.5, "unit": "µg/mL"},
      {"measurement": "MIC", "setting": "Bacillus cereus T", "result": 12.5, "unit": "µg/mL"},
      {"measurement": "MIC", "setting": "Sarcina lutea PCI 1001", "result": 25, "unit": "µg/mL"},
      {"measurement": "MIC", "setting": "[5]", "result": "> 100", "unit": "µg/mL"},
      {"measurement": "MIC", "setting": "[6]", "result": 25, "unit": "µg/mL"},
      {"measurement": "MIC", "setting": "Nocardia asteroides", "result": "> 100", "unit": "µg/mL"},
      {"measurement": "MIC", "setting": "Escherichia coli NIHJ", "result": 50, "unit": "µg/mL"},
      {"measurement": "MIC", "setting": "Salmonella typhimurium", "result": "> 100", "unit": "µg/mL"},
      {"measurement": "MIC", "setting": "Shigella sonnei E 33", "result": "> 100", "unit": "µg/mL"},
      {"measurement": "MIC", "setting": "[7]", "result": "> 100", "unit": "µg/mL"},
      {"measurement": "MIC", "setting": "Candida albicans", "result": "> 100", "unit": "µg/mL"},
      {"measurement": "MIC", "setting": "Saccharomyces sake", "result": "> 100", "unit": "µg/mL"},
      {"measurement": "MIC", "setting": "Piricularia oryzae", "result": 100, "unit": "µg/mL"},
      {"measurement": "MIC", "setting": "[8]", "result": "> 100", "unit": "µg/mL"},
      {"measurement": "MIC", "setting": "Microsporum gypseum", "result": 100, "unit": "µg/mL"},
      {"measurement": "MIC", "setting": "[9]", "result": 50, "unit": "µg/mL"},
      {"measurement": "MIC", "setting": "Trichophyton rubrum", "result": 50, "unit": "µg/mL"},
      {"measurement": "MIC", "setting": "[10]", "result": 50, "unit": "µg/mL"},
      {"measurement": "MIC", "setting": "Trichophyton schoenleini", "result": 50, "unit": "µg/mL"},
      {"measurement": "LD50", "setting": "[11]", "result": 60, "unit": "mg/kg"},
      {"measurement": "activity against Gram-positive bacteria and fungi relative to nanaomycin A and D", "setting": "[12]", "result": "approximately equal to or somewhat weaker than the activities of nanaomycin A and D"},
      {"measurement": "Solubility", "setting": "solubility; in methanol, ethanol, ethyl acetate, butyl acetate etc.", "result": "Easily soluble"},
      {"measurement": "Solubility", "setting": "solubility; in n-hexane, petroleum ether etc.", "result": "Insoluble"}
    ]},
    {"compound": "CC1OC2CC(=O)OC2C2=C1C(=O)c1c(O)cccc1C2=O", "note": "(stereo not drawn) [nanaomycin D]", "values": [
      {"measurement": "LD50", "setting": "[11]", "result": 1.5, "unit": "mg/kg"}
    ]},
    {"compound": "CC1OC(CC(=O)O)CC2=C1C(=O)c1c(O)cccc1C2=O", "note": "(stereo not drawn) [nanaomycin A]", "values": [
      {"measurement": "LD50", "setting": "[11]", "result": 46, "unit": "mg/kg"},
      {"measurement": "antibiotic activity", "setting": "[13]; against Gram-positive bacteria, Trichophyton and Mycoplasma, known compound", "result": "having antibiotic activity against Gram-positive bacteria, Trichophyton and Mycoplasma"},
      {"measurement": "activity against Gram-positive bacteria, Trichophyton and Mycoplasma", "setting": "[13]; among nanaomycin-type compounds", "result": "exhibits the strongest activity"}
    ]}
  ]
}
